Structures are written as SMILES.

For this experiment, the system named is patient with DM1 and suspected hyporeninemic hypoaldosteronism. The experiment is described as follows: Case report: fludrocortisone therapeutic test. The conditions noted are these: fludrocortisone 0.2 mg/day. It counts as in vivo, human. The protocol:
Case presentation: A person, diagnosed with type 1 diabetes mellitus (DM1) for 12 years, presented progressive of walking difficulties 5 years ago, associated with dizziness, weakness, and tachycardia at rest with hypotension. […] Neuropathy Disability Score (NDS) was carried out, presenting 10 out of 10 points, classified as severe impairment. Because of an extremely significant clinical condition, with no evidence of microvascular compromise, hyporeninemic hypoaldosteronism (HH) was investigated. […] Subsequently, the patient was exposed to the exogenous ACTH test, with the administration of ACTH 250mcg intravenous and dosages of serum cortisol and aldosterone at times 0‘, 30‘, 60‘. There was an elevation of serum cortisol to levels above the limit of normality (18 mcg/dL), discarding primary adrenal insufficiency, and aldosterone levels at the lower limit of normal (attached tables). Even tests without confirmation, the use of fludrocortisone 0.2 mg/day was started as a therapeutic test.

For the compound `C[C@]12CCC(=O)C=C1CC[C@H]1[C@@H]3CC[C@](O)(C(=O)CO)[C@@]3(C)C[C@H](O)[C@@]12F` [fludrocortisone], the clinical course entry was “improvement of the blood pressure (BP) and dizziness”.

Values taken from paper PMC5907308, “21st Brazilian Diabetes Society Congress” (Diabetology & Metabolic Syndrome, 2018).
